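How tested: cells in 96-well plates exposed to compound for 48 hours at five concentrations. GI50 marks 50% less growth.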 Calls of active or inactive are those of the source. No stated cut-off is given here; in the data, active = GI50 up to about 1.1 µM and inactive = higher.

Among the test systems are ACHN; BT-549; HL-60; IGROV-1; LOX IMVI; MCF7; MDA-MB-435; NCI-H226; NCI/ADR-RES; OVCAR-5; RPMI-8226; RXF 393; SF-268; SK-MEL-28; SK-MEL-2; SNB-19; SW-620; U-251; UACC-62; UO-31.
Common to all, as to assay: inhibition of tumour cell growth, NCI panel, 48 h

On to `COC(=O)C(Cc1c[nH]c2ccccc12)NC(=O)c1ccc(-c2ccc(Cl)cc2Cl)o1` (stereo not given), for which the GI50 with ACHN was 38.4 µM (inactive); with BT-549, > 100 µM (inactive); in the test with HL-60, 10.5 µM (inactive); in the test with IGROV-1, 32.6 µM (inactive); with LOX IMVI it was 53 µM (inactive); in the test with MCF7 it was 24.4 µM (inactive). Also, the GI50 in the test on MDA-MB-435 was 56 µM (inactive); in the test on NCI-H226, 91.4 µM (inactive); with NCI/ADR-RES it was 77.8 µM (inactive); in the test with OVCAR-5, > 100 µM (inactive); in the test on RPMI-8226, 16 µM (inactive); with RXF 393, 28.5 µM (inactive). Besides, the GI50 in the test on SF-268 is > 100 µM (inactive); in the test with SK-MEL-28, 65.6 µM (inactive); in the test with SK-MEL-2, 34.8 µM (inactive); with SNB-19 it was > 100 µM (inactive); in the test on SW-620, 41.1 µM (inactive); with U-251, 42.7 µM (inactive). Further, the values for the GI50 with UACC-62 and in the test with UO-31 were 43.3 µM (inactive) and 45.4 µM (inactive), respectively.
Turning to `CC(C)C[C@H](NC(=O)[C@H](Cc1cccc2ccccc12)NC(=O)N1CCOCC1)B(O)O`, the GI50 is < 0.01 µM (active) in the test on ACHN; < 0.01 µM (active) in the test with BT-549; < 0.01 µM (active) in the test on HL-60; < 0.01 µM (active) in the test on IGROV-1; < 0.01 µM (active) in the test with LOX IMVI; < 0.0444 µM (active) in the test on MCF7. For the same molecule, the GI50 in the test on MDA-MB-435 is < 0.01 µM (active); in the test on NCI-H226, 0.000104 µM (active); in the test with NCI/ADR-RES, 0.149 µM (active); with OVCAR-5, < 0.01 µM (active); with RPMI-8226 it was < 0.01 µM (active); in the test on RXF 393 it was 0.000555 µM (active). In addition, the GI50 was < 0.01 µM (active) in the test with SF-268; < 0.01 µM (active) in the test with SK-MEL-28; < 0.01 µM (active) with SK-MEL-2; < 0.01 µM (active) in the test with SNB-19; 0.000776 µM (active) in the test with SW-620; < 0.01 µM (active) with U-251. The results for the GI50 in the test with UACC-62 and in the test with UO-31 were < 0.01 µM (active) and 0.0313 µM (active), respectively.
`O=C1Nc2nccnc2C(=O)N2CCC[C@@H]12`: the GI50 in the test with ACHN, in the test with BT-549, with HL-60, in the test with IGROV-1, in the test on LOX IMVI and in the test on MCF7 was > 100 µM (inactive) throughout. For the same molecule, the GI50 in the test with MDA-MB-435, in the test on NCI-H226, in the test with NCI/ADR-RES, with OVCAR-5, in the test on RPMI-8226 and in the test on RXF 393 was > 100 µM (inactive) in each case. Further, the GI50 with SF-268, with SK-MEL-28, in the test with SK-MEL-2, in the test with SNB-19, in the test with SW-620 and in the test on U-251 was > 100 µM (inactive) throughout. Further, the GI50 in the test with UACC-62 and in the test with UO-31 was > 100 µM (inactive) each time.
On to `COC(=O)C1(Cc2ccc3c(c2)CCC3)Cc2cc3c(cc2C1)CCC3`, for which the GI50 in the test with ACHN is 38.3 µM (inactive); in the test on BT-549, 42.7 µM (inactive); in the test with HL-60, 36.9 µM (inactive); with IGROV-1, 80 µM (inactive); in the test with LOX IMVI it was 18.7 µM (inactive); in the test with MCF7, 22.5 µM (inactive). In addition, the GI50 with MDA-MB-435 was 39 µM (inactive); with NCI-H226 it was 33.7 µM (inactive); in the test on NCI/ADR-RES, 59.8 µM (inactive); in the test on OVCAR-5, 55.6 µM (inactive); with RPMI-8226, 53 µM (inactive); in the test with RXF 393, 23.9 µM (inactive). In addition, the GI50 in the test with SF-268 is 30.3 µM (inactive); with SK-MEL-28 it was 60.1 µM (inactive); with SK-MEL-2, 19.9 µM (inactive); in the test on SNB-19 it was 68.1 µM (inactive); with SW-620, 75.7 µM (inactive); with U-251, 37.4 µM (inactive). Further, the GI50 with UACC-62 was 71.3 µM (inactive); in the test with UO-31 it was 49.9 µM (inactive).

For the origin of these results see ChEMBL document CHEMBL1201862, “PubChem BioAssay data set” (2004).
